Where two headings read alike, the source gives them in different places.
Columns and labels:
ALK protein = ALK protein (Homo sapiens, UniProt Q9UM73); assay: Western-blot half degradation concentration (DC50) of ALK protein in H3122 cells; assay type: cell-based; conditions: 24 h drug treatment, read-out: DC50 (nM)/ H3122 cell line
Experimental: (§1) ALK-positive SR cells (human large cell immunoblastic lymphoma) were purchased from the American Type Culture Collection (ATCC); H3122 cells (human non-small cell lung cancer) were from the Shanghai University of Science and Technology Lin Haifan's research group.
(§2) The cells used in this present disclosure were cultured in a 37° C. incubator containing 5% CO2.
DC50 (drug concentration corresponding to protein degradation to 50%) calculation: according to the gray value of the corresponding Western blotting band after drug treatment, fitting the relationship curve between drug concentration and gray value to calculate the drug concentration range corresponding to half of the gray value.

SR cells = assay: Half inhibitory concentration (IC50) on ALK-positive SR cell proliferation (CCK-8); assay type: cell-based; conditions: Homo sapiens; SR cells, 72 h drug treatment, CCK-8; read-out: IC50 (nM)/ SR cell line
Experimental: as §1, §2
SR cells were seeded in 100 μL RPMI1640 complete medium at a density of 10,000 cells/well. 100 μL of the inoculated cells were treated with 0.5 μL diluted PROTAD compound of the present disclosure to be tested at 10 successively decreasing concentrations (starting at the highest concentration of 10 μM; 5-fold serial dilutions) After the cells were treated with the drug for 72 h, cell viability was determined according to the CCK-8 reagent operating instructions. The negative control was DMSO, and the positive control was a commercial inhibitor. After CCK-8 treatment for 2 h, the value of O.D.450 was measured using a microplate reader.

MV-4-11 cells = assay: Half inhibitory concentration (IC50) on BET-expressing tumor cells, CCK-8, MV-4-11
Experimental: Determination of the Half Inhibitory Concentration (IC50) of PROTAD Compounds on Tumor Cells
MV-411 cells, MM1S cells and SR cells were seeded in 100 μL IMDM/RPMI1640/DMEM complete medium at a density of 15000/10000 cells/well; MDA-MB-231 cells, MDA-MB-468 cells, and MDA-MB453 cells were seeded in 100 μL IMDM/RPMI1640/DMEM complete medium at a density of 3000/5000 cells/well, respectively. 100 μL of the inoculated cells were treated with 0.5 μL diluted PROTAD compounds of the present disclosure to be tested at 10 successively decreasing concentrations (starting at the highest concentration of 10 μM; 5-fold serial dilutions). After the cells were treated with the tested drugs 48/72 h, the cell viability was determined according to the CCK-8 reagent manual. The negative control was DMSO, and the positive control was a commercial inhibitor. After CCK-8 treatment for 2 h, the value of O.D.450 was measured using a microplate reader.

[1] = Homo sapiens, MV4-11, read-out: IC50 (nM)/MV-4-11 cell line, MV-4-11 cells, 48/72 h, CCK-8
[2] = read-out: IC50 (nM)/MV-4-11 cell line, MV-4-11 cells, 48/72 h, CCK-8

Sequence of ALK protein (Q9UM73 with tags, fused parts or gaps): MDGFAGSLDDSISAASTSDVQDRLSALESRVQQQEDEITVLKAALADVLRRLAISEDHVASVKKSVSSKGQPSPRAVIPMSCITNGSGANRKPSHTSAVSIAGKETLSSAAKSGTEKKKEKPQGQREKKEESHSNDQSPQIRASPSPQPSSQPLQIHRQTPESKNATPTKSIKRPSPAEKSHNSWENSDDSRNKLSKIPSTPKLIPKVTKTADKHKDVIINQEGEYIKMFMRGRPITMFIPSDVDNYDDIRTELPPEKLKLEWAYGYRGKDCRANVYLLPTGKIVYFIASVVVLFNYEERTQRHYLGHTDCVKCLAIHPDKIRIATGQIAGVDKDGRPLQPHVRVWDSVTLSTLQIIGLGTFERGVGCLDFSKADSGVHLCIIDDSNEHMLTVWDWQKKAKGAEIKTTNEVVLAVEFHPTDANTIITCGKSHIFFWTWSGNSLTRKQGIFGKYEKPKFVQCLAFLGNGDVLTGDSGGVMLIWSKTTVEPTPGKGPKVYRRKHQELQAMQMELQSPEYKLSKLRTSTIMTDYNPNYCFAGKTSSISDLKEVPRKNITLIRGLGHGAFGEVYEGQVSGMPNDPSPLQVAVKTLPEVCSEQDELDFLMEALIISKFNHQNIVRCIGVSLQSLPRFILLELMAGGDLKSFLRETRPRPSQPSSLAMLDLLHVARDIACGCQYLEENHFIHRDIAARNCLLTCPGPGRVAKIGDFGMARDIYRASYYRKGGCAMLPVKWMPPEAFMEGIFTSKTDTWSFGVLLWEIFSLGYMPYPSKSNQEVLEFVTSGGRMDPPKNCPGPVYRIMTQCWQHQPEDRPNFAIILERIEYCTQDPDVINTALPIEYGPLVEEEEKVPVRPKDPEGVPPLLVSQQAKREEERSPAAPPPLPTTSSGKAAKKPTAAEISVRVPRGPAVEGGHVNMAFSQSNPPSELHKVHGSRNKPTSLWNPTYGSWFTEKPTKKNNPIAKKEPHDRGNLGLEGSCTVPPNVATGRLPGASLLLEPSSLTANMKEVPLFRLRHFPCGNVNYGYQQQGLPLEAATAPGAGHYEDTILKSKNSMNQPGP

## CCc1cc2c(cc1N1CCN(C(=O)CSc3cccc4c3C(=O)N(C3CCC(=O)NC3=O)C4=O)CC1)C(C)(C)c1[nH]c3cc(C#N)ccc3c1C2=O (stereo not shown) [SIAIS164068, 8-(4-(2-((2-(2,6-dioxopiperidin-3-yl)-1,3-dioxoisoindolin-4-yl)thio)acetyl)piperazin-1-yl)-9-ethyl-6,6-dimethyl-11-oxo-6,11-dihydro-5H-benzo[b]carbazole-3-carbonitrile]
ALK protein
  DC50: 104 nM

## CCc1cc2c(cc1N1CCN(C(=O)CCSc3cccc4c3C(=O)N(C3CCC(=O)NC3=O)C4=O)CC1)C(C)(C)c1[nH]c3cc(C#N)ccc3c1C2=O (stereo not shown) [SIAIS164069, 8-(4-(3-((2-(2,6-dioxopiperidin-3-yl)-1,3-dioxoisoindolin-4-yl)thio)propanoyl)piperazin-1-yl)-9-ethyl-6,6-dimethyl-11-oxo-6,11-dihydro-5H-benzo[b]carbazole-3-carbonitrile]
ALK protein
  DC50: 100 to 500 nM

## CCc1cc2c(cc1N1CCN(C(=O)CCCSc3cccc4c3C(=O)N(C3CCC(=O)NC3=O)C4=O)CC1)C(C)(C)c1[nH]c3cc(C#N)ccc3c1C2=O (stereo not shown) [SIAIS164070, 8-(4-(4-((2-(2,6-dioxopiperidin-3-yl)-1,3-dioxoisoindolin-4-yl)thio)butanoyl)piperazin-1-yl)-9-ethyl-6,6-dimethyl-11-oxo-6,11-dihydro-5H-benzo[b]carbazole-3-carbonitrile]
ALK protein
  DC50: 100 to 500 nM

## CCc1cc2c(cc1N1CCN(C(=O)CCCCCSc3cccc4c3C(=O)N(C3CCC(=O)NC3=O)C4=O)CC1)C(C)(C)c1[nH]c3cc(C#N)ccc3c1C2=O (stereo not shown) [SIAIS164071, 8-(4-(6-((2-(2,6-dioxopiperidin-3-yl)-1,3-dioxoisoindolin-4-yl)thio)hexanoyl)piperazin-1-yl)-9-ethyl-6,6-dimethyl-11-oxo-6,11-dihydro-5H-benzo[b]carbazole-3-carbonitrile]
ALK protein
  DC50: 204 nM

## CCc1cc2c(cc1N1CCN(C(=O)CCCCSc3cccc4c3C(=O)N(C3CCC(=O)NC3=O)C4=O)CC1)C(C)(C)c1[nH]c3cc(C#N)ccc3c1C2=O (stereo not shown) [SIAIS164072, 8-(4-(5-((2-(2,6-dioxopiperidin-3-yl)-1,3-dioxoisoindolin-4-yl)thio)pentanoyl)piperazin-1-yl)-9-ethyl-6,6-dimethyl-11-oxo-6,11-dihydro-5H-benzo[b]carbazole-3-carbonitrile]
ALK protein
  DC50: 63 nM

## CCc1cc2c(cc1N1CCN(C(=O)CCCCCCSc3cccc4c3C(=O)N(C3CCC(=O)NC3=O)C4=O)CC1)C(C)(C)c1[nH]c3cc(C#N)ccc3c1C2=O (stereo not shown) [SIAIS164073, 8-(4-(7-((2-(2,6-dioxopiperidin-3-yl)-1,3-dioxoisoindolin-4-yl)thio)heptanoyl)piperazin-1-yl)-9-ethyl-6,6-dimethyl-11-oxo-6,11-dihydro-5H-benzo[b]carbazole-3-carbonitrile]
ALK protein
  DC50: 100 to 500 nM

## COc1cc(N2CCC(NC(=O)CSc3cccc4c3C(=O)N(C3CCC(=O)NC3=O)C4=O)CC2)ccc1Nc1ncc(Cl)c(Nc2ccccc2P(C)(C)=O)n1 (stereo not shown) [SIAIS164137, N-(1-(4-((5-chloro-4-((2-(dimethylphosphoryl)phenyl)amino)pyrimidin-2-yl)amino)-3-methoxyphenyl)piperidin-4-yl)-2-((2-(2,6-dioxopiperidin-3-yl)-1,3-dioxoisoindolin-4-yl)thio)acetamide]
SR cells
  IC50: 16.8 ± 5.7 nM
ALK protein
  DC50: 500 nM

## COc1cc(N2CCC(NC(=O)CCSc3cccc4c3C(=O)N(C3CCC(=O)NC3=O)C4=O)CC2)ccc1Nc1ncc(Cl)c(Nc2ccccc2P(C)(C)=O)n1 (stereo not shown) [SIAIS164138, N-(1-(4-((5-chloro-4-((2-(dimethylphosphoryl)phenyl)amino)pyrimidin-2-yl)amino)-3-methoxyphenyl)piperidin-4-yl)-3-((2-(2,6-dioxopiperidin-3-yl)-1,3-dioxoisoindolin-4-yl)thio)propanamide]
SR cells
  IC50: 24.1 ± 17.5 nM
ALK protein
  DC50: 100 nM

## COc1cc(N2CCC(NC(=O)CCCSc3cccc4c3C(=O)N(C3CCC(=O)NC3=O)C4=O)CC2)ccc1Nc1ncc(Cl)c(Nc2ccccc2P(C)(C)=O)n1 (stereo not shown) [SIAIS164139, N-(1-(4-((5-chloro-4-((2-(dimethylphosphoryl)phenyl)amino)pyrimidin-2-yl)amino)-3-methoxyphenyl)piperidin-4-yl)-4-((2-(2,6-dioxopiperidin-3-yl)-1,3-dioxoisoindolin-4-yl)thio)butanamide]
SR cells
  IC50: 11.6 ± 6 nM
ALK protein
  DC50: 500 nM

## COc1cc(N2CCC(NC(=O)CCCCSc3cccc4c3C(=O)N(C3CCC(=O)NC3=O)C4=O)CC2)ccc1Nc1ncc(Cl)c(Nc2ccccc2P(C)(C)=O)n1 (stereo not shown) [SIAIS164140, N-(1-(4-((5-chloro-4-((2-(dimethylphosphoryl)phenyl)amino)pyrimidin-2-yl)amino)-3-methoxyphenyl)piperidin-4-yl)-5-((2-(2,6-dioxopiperidin-3-yl)-1,3-dioxoisoindolin-4-yl)thio)pentanamide]
SR cells
  IC50: 8.7 ± 4.9 nM
ALK protein
  DC50: 500 nM

## COc1cc(N2CCC(NC(=O)CCCCCCSc3cccc4c3C(=O)N(C3CCC(=O)NC3=O)C4=O)CC2)ccc1Nc1ncc(Cl)c(Nc2ccccc2P(C)(C)=O)n1 (stereo not shown) [SIAIS164142, N-(1-(4-((5-chloro-4-((2-(dimethylphosphoryl)phenyl)amino)pyrimidin-2-yl)amino)-3-methoxyphenyl)piperidin-4-yl)-7-((2-(2,6-dioxopiperidin-3-yl)-1,3-dioxoisoindolin-4-yl)thio)heptanamide]
SR cells
  IC50: 6.4 ± 4 nM
ALK protein
  DC50: 50 nM

## Cc1sc2c(c1C)C(c1ccc(Cl)cc1)=N[C@@H](CC(=O)NCCN1CCN(CCCCCSc3cccc4c3CN(C3CCC(=O)NC3=O)C4=O)CC1)c1nnc(C)n1-2 (stereo partly drawn) [SIAIS213133, 2-((S)-4-(4-chlorophenyl)-2,3,9-trimethyl-6H-thieno[3,2-f][1,2,4]triazolo[4,3-a][1,4]diazepin-6-yl)-N-(2-(4-(5-((2-(2,6-dioxopiperidin-3-yl)-1-oxoisoindolin-4-yl)thio)pentyl)piperazin-1-yl)ethyl)acetamide]
MV-4-11 cells; [1]
  IC50: 0.036 ± 0.045 nM

## Cc1sc2c(c1C)C(c1ccc(Cl)cc1)=N[C@@H](CC(=O)NCCN1CCN(CCCSc3cccc4c3CN(C3CCC(=O)NC3=O)C4=O)CC1)c1nnc(C)n1-2 (stereo partly drawn) [SIAIS213136, 2-((S)-4-(4-chlorophenyl)-2,3,9-trimethyl-6H-thieno[3,2-f][1,2,4]triazolo[4,3-a][1,4]diazepin-6-yl)-N-(2-(4-(3-((2-(2,6-dioxopiperidin-3-yl)-1-oxoisoindolin-4-yl)thio)propyl)piperazin-1-yl)ethyl)acetamide]
MV-4-11 cells; [1]
  IC50: 0.068 nM
MV-4-11 cells; [2]
  IC50: 0.04 nM

## Cc1sc2c(c1C)C(c1ccc(Cl)cc1)=N[C@@H](CC(=O)N1CCN(CCCCSc3cccc4c3CN(C3CCC(=O)NC3=O)C4=O)CC1)c1nnc(C)n1-2 (stereo partly drawn) [SIAIS213138, 3-(4-((4-(4-(2-((S)-4-(4-chlorophenyl)-2,3,9-trimethyl-6H-thieno[3,2-f][1,2,4]triazolo[4,3-a][1,4]diazepin-6-yl)acetyl)piperazin-1-yl)butyl)thio)-1-oxoisoindolin-2-yl)piperidine-2,6-dione]
MV-4-11 cells; [1]
  IC50: 0.084 nM
MV-4-11 cells; [2]
  IC50: 0.051 nM

## Cc1sc2c(c1C)C(c1ccc(Cl)cc1)=N[C@@H](CC(=O)NCCN1CCN(CCCCSc3cccc4c3CN(C3CCC(=O)NC3=O)C4=O)CC1)c1nnc(C)n1-2 (stereo partly drawn) [SIAIS213139, 2-((S)-4-(4-chlorophenyl)-2,3,9-trimethyl-6H-thieno[3,2-f][1,2,4]triazolo[4,3-a][1,4]diazepin-6-yl)-N-(2-(4-(4-((2-(2,6-dioxopiperidin-3-yl)-1-oxoisoindolin-4-yl)thio)butyl)piperazin-1-yl)ethyl)acetamide]
MV-4-11 cells; [1]
  IC50: 0.027 ± 0.006 nM

## COc1cc(N2CCN(C(=O)CSc3cccc4c3C(=O)N(C3CCC(=O)NC3=O)C4=O)CC2)ccc1Nc1ncc(Cl)c(Nc2ccccc2P(C)(C)=O)n1 (stereo not shown) [SIAIS1197113, 4-((2-(4-(4-((5-chloro-4-((2-(dimethylphosphoryl)phenyl)amino)pyrimidin-2-yl)amino)-3-methoxyphenyl)piperazin-1-yl)-2-oxoethyl)thio)-2-(2,6-dioxopiperidin-3-yl)isoindoline-1,3-dione]
SR cells
  IC50: 23.6 ± 19.4 nM
ALK protein
  DC50: 100 nM

## COc1cc(N2CCN(C(=O)CCSc3cccc4c3C(=O)N(C3CCC(=O)NC3=O)C4=O)CC2)ccc1Nc1ncc(Cl)c(Nc2ccccc2P(C)(C)=O)n1 (stereo not shown) [SIAIS1197115, 4-((3-(4-(4-((5-chloro-4-((2-(dimethylphosphoryl)phenyl)amino)pyrimidin-2-yl)amino)-3-methoxyphenyl)piperazin-1-yl)-3-oxopropyl)thio)-2-(2,6-dioxopiperidin-3-yl)isoindoline-1,3-dione]
SR cells
  IC50: 42 ± 29.3 nM
ALK protein
  DC50: 500 nM

## COc1cc(N2CCN(C(=O)CCCSc3cccc4c3C(=O)N(C3CCC(=O)NC3=O)C4=O)CC2)ccc1Nc1ncc(Cl)c(Nc2ccccc2P(C)(C)=O)n1 (stereo not shown) [SIAIS1197117, 4-((4-(4-(4-((5-chloro-4-((2-(dimethylphosphoryl)phenyl)amino)pyrimidin-2-yl)amino)-3-methoxyphenyl)piperazin-1-yl)-4-oxobutyl)thio)-2-(2,6-dioxopiperidin-3-yl)isoindoline-1,3-dione]
SR cells
  IC50: 16.9 ± 12 nM
ALK protein
  DC50: 500 nM

From US12226424B2, “Target protein degradation compounds, their anti-tumor use, their intermediates and use of intermediates” (ShanghaiTech University, priority 2018, dated 2025)
